Columns and labels:
[1] = biological target: T1, 3-hydroxyanthranilate 3,4-dioxygenase (Homo sapiens) (UniProt P46952); test: Inhibition of 3-HAO in human brain homogenates using [1-14C]-3-HANA as substrate assessed as [14C]-QUIN production at 10 uM after 1 hr by liquid scintillation spectrometric analysis relative to control; assay type: tissue-based
T1 sequence (whole entry): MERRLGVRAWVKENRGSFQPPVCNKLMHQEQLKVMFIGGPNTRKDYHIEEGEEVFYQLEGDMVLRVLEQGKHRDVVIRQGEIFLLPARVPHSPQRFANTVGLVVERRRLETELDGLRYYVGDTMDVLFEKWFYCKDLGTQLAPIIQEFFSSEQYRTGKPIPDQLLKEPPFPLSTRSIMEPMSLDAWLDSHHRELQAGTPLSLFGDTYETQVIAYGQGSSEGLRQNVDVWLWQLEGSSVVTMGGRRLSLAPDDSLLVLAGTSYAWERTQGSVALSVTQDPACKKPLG

[2] = biological target: T2, 3-hydroxyanthranilate 3,4-dioxygenase (Rattus norvegicus) (UniProt P46953); test: Inhibition of 3-HAO in Sprague-Dawley rat brain homogenates using [1-14C]-3-HANA as substrate assessed as [14C]-QUIN production at 1 mM after 1 hr by liquid scintillation spectrometric analysis relative to control; assay type: tissue-based
T2 sequence (whole entry): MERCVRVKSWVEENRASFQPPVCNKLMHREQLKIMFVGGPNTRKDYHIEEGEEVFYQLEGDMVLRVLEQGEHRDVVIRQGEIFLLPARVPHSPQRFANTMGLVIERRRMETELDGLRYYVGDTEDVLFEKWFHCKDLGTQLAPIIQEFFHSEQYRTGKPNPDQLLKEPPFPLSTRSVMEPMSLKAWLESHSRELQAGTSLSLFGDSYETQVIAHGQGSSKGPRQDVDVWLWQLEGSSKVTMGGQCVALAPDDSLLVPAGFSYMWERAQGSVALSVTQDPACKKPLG

[3] = biological target: T1, 3-hydroxyanthranilate 3,4-dioxygenase (Homo sapiens); test: Inhibition of 3-HAO in human brain homogenates using [1-14C]-3-HANA as substrate assessed as [14C]-QUIN production at 100 uM after 1 hr by liquid scintillation spectrometric analysis relative to control; assay type: tissue-based
[4] = biological target: T2, 3-hydroxyanthranilate 3,4-dioxygenase (Rattus norvegicus); test: Inhibition of 3-HAO in Sprague-Dawley rat brain homogenates using [1-14C]-3-HANA as substrate assessed as [14C]-QUIN production at 100 uM after 1 hr by liquid scintillation spectrometric analysis relative to control; assay type: tissue-based
[5] = biological target: T1, 3-hydroxyanthranilate 3,4-dioxygenase (Homo sapiens); test: Inhibition of 3-HAO in human brain homogenates using [1-14C]-3-HANA as substrate assessed as [14C]-QUIN production at 1 mM after 1 hr by liquid scintillation spectrometric analysis relative to control; assay type: tissue-based
[6] = biological target: T2, 3-hydroxyanthranilate 3,4-dioxygenase (Rattus norvegicus); test: Inhibition of 3-HAO in Sprague-Dawley rat brain homogenates using [1-14C]-3-HANA as substrate assessed as [14C]-QUIN production at 10 uM after 1 hr by liquid scintillation spectrometric analysis relative to control; assay type: tissue-based
[7] = Chemical stability in PBS buffer assessed as auto-oxidative degradation after 24 hrs by HPLC analysis; assay type: physicochemical; details: read-out: Drug degradation
[8] = Drug degradation in PBS buffer assessed as parent compound level at 10 uM after 24 hrs by HPLC/UV-vis spectroscopic analysis; assay type: physicochemical; details: read-out: Stability
[9] = Drug degradation in PBS buffer assessed as parent compound level at 100 uM after 24 hrs by HPLC/UV-vis spectroscopic analysis; assay type: physicochemical; details: read-out: Stability
Rattus norvegicus = test: In vivo inhibition of 3-HAO in excitotoxically lesioned Sprague-Dawley rat striatum assessed as de novo formation of [3H]-QUIN administered as intrastriatally measured after 2 hrs (reference value: 3.4 +/- 0.5%); assay type: functional
[10] = biological target: T3, 3-hydroxyanthranilate 3,4-dioxygenase (Homo sapiens, UniProt P46952); test: Inhibition of 3-HAO in human brain homogenates using [1-14C]-3-HANA as substrate assessed as [14C]-QUIN production after 1 hr by liquid scintillation spectrometric analysis; assay type: tissue-based
T3 sequence (P46952 whole entry): T1 sequence (whole entry)

[11] = biological target: T4, 3-hydroxyanthranilate 3,4-dioxygenase (Rattus norvegicus, UniProt P46953); test: Inhibition of 3-HAO in Sprague-Dawley rat brain homogenates using [1-14C]-3-HANA as substrate assessed as [14C]-QUIN production after 1 hr by liquid scintillation spectrometric analysis; assay type: tissue-based
T4 sequence (P46953 whole entry): T2 sequence (whole entry)

Compound	inhibition [1] [%]	inhibition [2] [%]	inhibition [3] [%]	inhibition [4] [%]	inhibition [5] [%]	inhibition [6] [%]	degraded at 24 h [7] [%]	remaining at 24 h, 10 µM [8] [%]	remaining at 24 h, 100 µM [9] [%]	IC50 [10] [µM]	IC50 [11] [µM]	[3H]-QUIN formed (Rattus norvegicus) [%]
Nc1c(C(=O)O)ccc(Cl)c1O	–	–	–	–	–	–	62	–	–	–	–	–
Nc1c(C(=O)O)ccc[n+]1[O-]	74	92.4	88.8	84.9	94	47.6	–	101	103	–	–	–
Nc1c(C(=O)O)cc(Br)c[n+]1[O-]	22.9	83.7	67.2	55.2	89.1	14.5	–	–	–	–	–	–
Cc1ccc(C(=O)O)c(N)n1	-3.6	42.5	0.7	5.1	24.8	-2.1	–	–	–	–	–	–
Cc1cc(C)[n+]([O-])c(N)c1C(=O)O	0.7	46.6	16.3	4.3	69.5	-0.8	–	–	–	–	–	–
Cc1ccc(C#N)c(N)[n+]1[O-]	-2.9	2.4	-0.5	-0.6	5.6	-2.4	–	–	–	–	–	–
CC(C)c1cc(C(C)C)[n+]([O-])c(N)c1C(=O)O	-5.4	14.6	1.5	2.9	10.6	1.2	–	–	–	–	–	–
Nc1c(C(=O)O)cc(Cl)c[n+]1[O-]	24.8	74.4	68.6	42.6	85.9	9.1	–	–	–	–	–	–
CCc1cc(C)[n+]([O-])c(N)c1C(=O)O	8.5	23	10.9	3.1	20	2.8	–	–	–	–	–	–
O=c1[nH]cnc2c1ccc[n+]2[O-]	5.5	46.9	13	6.4	44.3	0.6	–	–	–	–	–	–
Cc1cc(C(C)C)c(C(=O)O)c(N)[n+]1[O-]	4	25.7	10.2	2.2	24.1	1.1	–	–	–	–	–	–
Cc1cc(-c2ccccc2)c(C(=O)O)c(N)[n+]1[O-]	-2.8	14.8	4.1	5.5	7.4	2.4	–	–	–	–	–	–
O=C(O)c1ccc(Cl)[n+]([O-])c1	-5.4	37	-3	11.4	30.4	2.9	–	–	–	–	–	–

The next lines start with results.

inhibition [1] [%]	inhibition [2] [%]	inhibition [3] [%]	inhibition [4] [%]	inhibition [5] [%]	inhibition [6] [%]	degraded at 24 h [7] [%]	remaining at 24 h, 10 µM [8] [%]	remaining at 24 h, 100 µM [9] [%]	IC50 [10] [µM]	IC50 [11] [µM]	Compound	[3H]-QUIN formed (Rattus norvegicus) [%]
16.3	67.6	52.6	30.7	80.1	8.7	–	–	–	–	–	Cc1cc(C(=O)O)c(N)[n+]([O-])c1	–
72.9	95.2	89.6	84	95.2	67.3	–	–	–	–	–	Nc1c(C(=O)O)ccc(Cl)[n+]1[O-]	–
76.6	94.2	88.4	90.7	90.4	69.9	–	–	–	–	–	CCc1ccc(C(=O)O)c(N)[n+]1[O-]	–
31.3	85.8	76.3	61.6	89.1	17.6	–	–	–	–	–	Cc1cc(C(=O)O)c(N)[n+]([O-])c1C	–
-7.9	9.3	-5.8	1.2	6	1	–	–	–	–	–	COC(=O)c1ccc(C)[n+]([O-])c1N	–
1.7	11.5	1.3	-2	20.1	-1.1	–	–	–	–	–	Cc1ccc(C(N)=O)c(N)[n+]1[O-]	–
85.5	96	92.3	94.1	94.4	76.9	–	101	102	1.1	2.8	Cc1ccc(C(=O)O)c(N)[n+]1[O-]	0.9

— ChEMBL document CHEMBL3108765, “2-Aminonicotinic acid 1-oxides are chemically stable inhibitors of quinolinic acid synthesis in the mammalian brain: a step toward new antiexcitotoxic agents” (J Med Chem, 2013)
